Laboratory results reported in patent publication US10501421B1, “Substituted benzimidazoles as modulators of Ras signaling” (VANDERBILT UNIVERSITY, priority 2017, dated 2019).

Legend:
[1] = biological target: Ras GEF SOS (Son of Sevenless) (Homo sapiens, UniProt Q07889); assay: SOS-mediated nucleotide exchange on Ras (BODIPY-GDP fluorescence); type: biochemical; details: SOS-mediated exchange of BODIPY-GDP for GTP on Ras
Summary of the method: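 Exchange rates were taken from single-exponential fits of the fluorescence time course as BODIPY-GDP on Ras was replaced by GTP. Compound went in first, then GTP and SOS. Mean rates plotted against concentration gave EC50 by four-parameter dose-response fitting.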

Son of Sevenless (SOS) = biological target: T1, Son of Sevenless (SOS) (Homo sapiens, UniProt Q07889); assay: Binding to SOS, fluorescence polarization anisotropy (FPA) probe displacement; details: displacement of FITC-conjugated probe (Example 285), affinity calculated from IC50
T1 sequence (Q07889 564-1049 limits assumed): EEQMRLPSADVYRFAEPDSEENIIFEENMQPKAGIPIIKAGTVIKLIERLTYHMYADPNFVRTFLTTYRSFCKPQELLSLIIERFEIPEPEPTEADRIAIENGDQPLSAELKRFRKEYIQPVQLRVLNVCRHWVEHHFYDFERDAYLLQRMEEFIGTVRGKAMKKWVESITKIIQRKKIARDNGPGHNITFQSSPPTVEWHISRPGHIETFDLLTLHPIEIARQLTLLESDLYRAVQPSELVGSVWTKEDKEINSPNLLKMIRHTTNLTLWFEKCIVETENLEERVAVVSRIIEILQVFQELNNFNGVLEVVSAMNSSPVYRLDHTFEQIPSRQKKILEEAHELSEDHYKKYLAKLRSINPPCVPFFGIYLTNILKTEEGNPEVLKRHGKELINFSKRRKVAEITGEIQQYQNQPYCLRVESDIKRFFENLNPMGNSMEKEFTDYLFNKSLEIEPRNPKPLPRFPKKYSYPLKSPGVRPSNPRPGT
Summary of the method: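 Test compounds were titrated against SOS pre-bound to a fluorescein-labelled probe, with anisotropy plotted versus compound concentration. Binding affinities were derived from IC50 values obtained by four-parameter dose-response fitting.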

Sequence of Ras GEF SOS (Son of Sevenless) (P01112 1-166 partner limits assumed, one chain of several): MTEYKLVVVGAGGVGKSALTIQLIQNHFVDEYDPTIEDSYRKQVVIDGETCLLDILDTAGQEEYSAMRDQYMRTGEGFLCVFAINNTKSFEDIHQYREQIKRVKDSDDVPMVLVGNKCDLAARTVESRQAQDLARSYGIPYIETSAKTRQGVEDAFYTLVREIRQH

EC50 [1] [µM] | Ki (Son of Sevenless (SOS)) [µM] | SMILES
5 to 30 | > 5 | COc1ccccc1-c1nc(C)cc2c1nc(N1CCNCC1)n2Cc1ccc(F)c(C)c1 [Example 228, 1-(4-fluoro-3-methylbenzyl)-4-(2-methoxyphenyl)-6-methyl-2-(piperazin-1-yl)-1H-imidazo[4,5-c]pyridine]
1 to 5 | > 5 | Cc1cc2c(nc(N3CCNCC3)n2Cc2ccc(F)c(C)c2)c(-c2ccc(CN)cc2)n1 [Example 229, (4-(1-(4-fluoro-3-methylbenzyl)-6-methyl-2-(piperazin-1-yl)-1H-imidazo[4,5-c]pyridin-4-yl)phenyl)methanamine]
5 to 30 | > 5 | COc1ccc(-c2nc(C)cc3c2nc(N2CCNCC2)n3Cc2ccc(F)c(C)c2)cc1OC [Example 230, 4-(3,4-dimethoxyphenyl)-1-(4-fluoro-3-methylbenzyl)-6-methyl-2-(piperazin-1-yl)-1H-imidazo[4,5-c]pyridine]
5 to 30 | > 5 | Cc1cc2c(nc(N3CCNCC3)n2Cc2ccc(F)c(C)c2)c(CNCC(C)C)n1 [Example 231, N-((1-(4-fluoro-3-methylbenzyl)-6-methyl-2-(piperazin-1-yl)-1H-imidazo[4,5-c]pyridin-4-yl)methyl)-2-methylpropan-1-amine]
5 to 30 | > 5 | Cc1cc2c(nc(N3CCNCC3)n2Cc2ccc(F)c(C)c2)c(CNC2CCCC2)n1 [Example 232, N-((1-(4-fluoro-3-methylbenzyl)-6-methyl-2-(piperazin-1-yl)-1H-imidazo[4,5-c]pyridin-4-yl)methyl)cyclopentanamine]
5 to 30 | > 5 | Cc1cc2c(nc(N3CCNCC3)n2Cc2ccc(F)c(C)c2)c(CNC(C)C)n1 [Example 233, N-((1-(4-fluoro-3-methylbenzyl)-6-methyl-2-(piperazin-1-yl)-1H-imidazo[4,5-c]pyridin-4-yl)methyl)propan-2-amine]
5 to 30 | > 5 | Cc1cc2c(nc(N3CCNCC3)n2Cc2ccc(F)c(C)c2)c(CNCCC(C)C)n1 [Example 234, N-((1-(4-fluoro-3-methylbenzyl)-6-methyl-2-(piperazin-1-yl)-1H-imidazo[4,5-c]pyridin-4-yl)methyl)-3-methylbutan-1-amine]
30 to 100 | > 5 | Cc1cc2c(nc(N3CCNCC3)n2Cc2ccc(F)c(C)c2)c(CN2CCCCC2)n1 [Example 235, 1-(4-fluoro-3-methylbenzyl)-6-methyl-2-(piperazin-1-yl)-4-(piperidin-1-ylmethyl)-1H-imidazo[4,5-c]pyridine]
1 to 5 | > 5 | Cc1cnc2nc(NCCN)n(Cc3ccc(F)c(C)c3)c2c1 [Example 245, N^1-(1-(4-fluoro-3-methylbenzyl)-6-methyl-1H-imidazo[4,5-b]pyridin-2-yl)ethane-1,2-diamine]
1 to 5 | 1 to 5 | Cc1cnc2nc(NCCN)n(Cc3ccc(F)c(Cl)c3)c2c1 [Example 246, N^1-(1-(3-chloro-4-fluorobenzyl)-6-methyl-1H-imidazo[4,5-b]pyridin-2-yl)ethane-1,2-diamine]
1 to 5 | 1 to 5 | Cc1cnc2nc(NC3CCNC3)n(Cc3ccc(F)c(Cl)c3)c2c1 (stereo not drawn) [Example 247, 1-(3-chloro-4-fluorobenzyl)-6-methyl-N-(pyrrolidin-3-yl)-1H-imidazo[4,5-b]pyridin-2-amine]
30 to 100 | > 5 | Clc1ccc(Cn2c(N3CCNCC3)nc3ncccc32)cc1 [Example 251, 1-(4-chlorobenzyl)-2-(piperazin-1-yl)-1H-imidazo[4,5-b]pyridine]
1 to 5 | 1 to 5 | Cc1cc2c(nc(N3CCNCC3)n2Cc2ccc(F)c(Cl)c2)c(-c2cccnc2)c1C [Example 265, 1-[(3-chloro-4-fluorophenyl)methyl]-5,6-dimethyl-2-piperazin-1-yl-4-pyridin-3-ylbenzimidazole]
5 to 30 | > 5 | Fc1ccc(Cn2c(N3CCNCC3)nc3c(-c4cccnc4OCc4ccccc4)cccc32)cc1Cl [Example 266, 1-[(3-chloro-4-fluorophenyl)methyl]-4-(2-phenylmethoxypyridin-3-yl)-2-piperazin-1-ylbenzimidazole]
1 to 5 | > 5 | Cc1ccc2nc([C@@H]3CCC(=O)N3)n(Cc3ccc(F)c(Cl)c3)c2c1 [Example 274, (5S)-5-[1-[(3-chloro-4-fluorophenyl)methyl]-6-methylbenzimidazol-2-yl]pyrrolidin-2-one]
1 to 5 | > 5 | Cc1cc2nc(N3CCNCC3)n(Cc3cc(Cl)c(F)c(Cl)c3)c2cc1C [Example 277, 1-[(3,5-dichloro-4-fluorophenyl)methyl]-5,6-dimethyl-2-piperazin-1-ylbenzimidazole]
< 1 | 1 to 5 | OCc1cc(Cl)cc2c1nc(N1CCNCC1)n2Cc1ccc(F)c(Cl)c1 [Example 278, [6-chloro-1-[(3-chloro-4-fluorophenyl)methyl]-2-piperazin-1-ylbenzimidazol-4-yl]methanol]
1 to 5 | < 0.5 | Cc1cc(Cn2c(N3CCNCC3)nc3c(-n4ccc(N)c4)cc(Cl)cc32)cc(C)c1F [Example 279, 1-[6-chloro-1-[(4-fluoro-3,5-dimethylphenyl)methyl]-2-piperazin-1-ylbenzimidazol-4-yl]pyrrol-3-amine]
< 1 | 1 to 5 | Cc1cc(CO)c2nc(N3CCNCC3)n(Cc3cc(C)c(F)c(C)c3)c2c1 [Example 280, [1-[(4-fluoro-3,5-dimethylphenyl)methyl]-6-methyl-2-piperazin-1-ylbenzimidazol-4-yl]methanol]
1 to 5 | 0.5 to 1 | Cc1cc(Cn2c(N3CCNCC3)nc3c(C(N)C(=O)O)cc(Cl)cc32)cc(C)c1F (stereo not drawn) [Example 282, 2-amino-2-[6-chloro-1-[(4-fluoro-3,5-dimethylphenyl)methyl]-2-piperazin-1-ylbenzimidazol-4-yl]acetic acid]
5 to 30 | > 5 | NC(CO)c1cc(Cl)cc2c1nc(N1CCNCC1)n2Cc1ccc(F)c(Cl)c1 (stereo not drawn) [Example 283, 2-amino-2-[6-chloro-1-[(3-chloro-4-fluorophenyl)methyl]-2-piperazin-1-ylbenzimidazol-4-yl]ethanol]
< 1 | 1 to 5 | Cc1cc2nc(N3CC(CN)C3)n(Cc3ccc(F)c(Cl)c3)c2cc1C [Example 288, (1-(1-(3-chloro-4-fluorobenzyl)-5,6-dimethyl-1H-benzo[d]imidazol-2-yl)azetidin-3-yl)methanamine]
1 to 5 | 1 to 5 | Cc1cc2nc(N3CCCC(N)C3)n(Cc3ccc(F)c(Cl)c3)c2cc1C (stereo not drawn) [Example 290, 1-(1-(3-chloro-4-fluorobenzyl)-5,6-dimethyl-1H-benzo[d]imidazol-2-yl)piperidin-3-amine]
< 1 | 1 to 5 | Cc1cc2nc(NCC3CNC3)n(Cc3ccc(F)c(Cl)c3)c2cc1C [Example 291, N-(azetidin-3-ylmethyl)-1-(3-chloro-4-fluorobenzyl)-5,6-dimethyl-1H-benzo[d]imidazol-2-amine]
1 to 5 | 1 to 5 | Cc1cc2nc(N[C@H]3C[C@@H](N)C3)n(Cc3ccc(F)c(Cl)c3)c2cc1C [Example 292, (1s,3s)-N^1-(1-(3-chloro-4-fluorobenzyl)-5,6-dimethyl-1H-benzo[d]imidazol-2-yl)cyclobutane-1,3-diamine]
1 to 5 | 1 to 5 | Cc1cc2nc(NC3CCNC3)n(Cc3ccc(F)c(Cl)c3)c2cc1C (stereo not drawn) [Example 293, 1-(3-chloro-4-fluorobenzyl)-5,6-dimethyl-N-(pyrrolidin-3-yl)-1H-benzo[d]imidazol-2-amine]
5 to 30 | > 5 | Cc1cc2nc(N3CCC(N)CC3)n(Cc3ccc(F)c(Cl)c3)c2cc1C [Example 294, 1-(1-(3-chloro-4-fluorobenzyl)-5,6-dimethyl-1-benzo[d]imidazol-2-yl)piperidin-4-amine]
1 to 5 | < 0.5 | Cc1cc(Cn2c(N3CCNCC3)nc3c(N(C)C)cc(Cl)cc32)cc(C)c1F [Example 296, 6-chloro-1-(4-fluoro-3,5-dimethylbenzyl)-N,N-dimethyl-2-(piperazin-1-yl)-1H-benzo[d]imidazol-4-amine]
1 to 5 | < 0.5 | Cc1cc(Cn2c(N3CCNCC3)nc3c(N4CCCCC4)cc(Cl)cc32)cc(C)c1F [Example 297, 6-chloro-1-(4-fluoro-3,5-dimethylbenzyl)-2-(piperazin-1-yl)-4-(piperidin-1-yl)-1H-benzo[d]imidazole]
< 1 | < 0.5 | Cc1cc(Cn2c(NCCN)nc3c(N4CCC(N)CC4)cc(Cl)cc32)cc(C)c1F [Example 298, N^1-(4-(4-aminopiperidin-1-yl)-6-chloro-1-(4-fluoro-3,5-dimethylbenzyl)-1H-benzo[d]imidazol-2-yl)ethane-1,2-diamine]
